Data: patent publication US8163909B2, “Substituted hydroxyethyl amine compounds as beta-secretase modulators and methods of use” (Amgen Inc., priority 2007, dated 2012)
Like-named read-outs stand apart in the source and are kept apart here.

Columns and labels:
[1] = test system: Aβ40 in conditioned medium of cells stably expressing Amyloid Precursor Protein (APP); test: In vitro BACE cell-based assay (Aβ40 in conditioned medium, sandwich ELISA); details: Homo sapiens;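 note: compounds added as a dilution series, secreted peptide quantified by europium time-resolved fluorescence readout, potency fitted from percent of control versus compound concentration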
[2] = molecular target: Beta Secretase enzyme (BACE) (Homo sapiens, UniProt P56817); test: In vitro enzymatic BACE FRET (fluorescence resonance energy transfer) assay; type: biochemical;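 note: fluorescence read after 1 h with 50 nM quenched peptide substrate spanning the BACE cleavage site, in pH 4.2 acetate buffer containing 10% DMSO and nonionic detergent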
[3] = HEK293, Table 1, HEK cells, read-out: HEK cell assay
[4] = Table 1, read-out: BACE1 FRET assay
[5] = HEK293, Table 2, HEK cells, read-out: HEK cell assay
[6] = Table 2, read-out: BACE1 FRET assay
[7] = HEK293, HEK cells, read-out: HEK cell assay
[8] = BACE enzyme assay, read-out: BACE1 FRET assay
[9] = HEK293, HEK cells, read-out: HEK cell assay (IC50)
[10] = read-out: BACE1 FRET assay (IC50)

Chain of Beta Secretase enzyme (BACE) (P56817 46-501): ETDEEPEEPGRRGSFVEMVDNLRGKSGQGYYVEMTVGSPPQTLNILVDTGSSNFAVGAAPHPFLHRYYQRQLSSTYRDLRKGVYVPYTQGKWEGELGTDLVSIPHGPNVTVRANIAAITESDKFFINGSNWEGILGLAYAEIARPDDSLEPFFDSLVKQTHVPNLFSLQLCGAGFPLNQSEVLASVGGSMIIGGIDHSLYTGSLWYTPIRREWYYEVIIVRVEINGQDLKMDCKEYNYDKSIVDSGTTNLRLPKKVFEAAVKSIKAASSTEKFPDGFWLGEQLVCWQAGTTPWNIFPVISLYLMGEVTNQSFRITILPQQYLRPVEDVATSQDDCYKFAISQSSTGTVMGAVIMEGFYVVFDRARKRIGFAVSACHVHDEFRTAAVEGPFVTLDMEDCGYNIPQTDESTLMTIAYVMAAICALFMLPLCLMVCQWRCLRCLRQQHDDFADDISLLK

| IC50 [1, 3] | IC50 [2, 4] | SMILES | also measured |
| --- | --- | --- | --- |
| 6.01 nM | 3.26 nM | COCC(=O)N[C@@H](Cc1cccc(F)c1)[C@H](O)CN[C@H]1CC2(CCC2)Oc2ncc(CC(C)C)cc21 [compound 329] |  |
| 43.9 nM | 22.1 nM | CO[C@H](C)C(=O)N[C@@H](Cc1ccc2c(c1)OCO2)[C@H](O)CN[C@H]1CC2(CCC2)Oc2ncc([C@H](F)C(C)(C)C)cc21 [compound 330] |  |
| 44.6 nM | 51.5 nM | CO[C@@H](C)C(=O)N[C@@H](Cc1ccc2c(c1)OCO2)[C@H](O)CN[C@H]1CC2(CCC2)Oc2ncc([C@H](F)C(C)(C)C)cc21 [compound 331] |  |
| 18.9 nM | 10.9 nM | COCC(=O)N[C@@H](Cc1ccc(F)cc1)[C@H](O)CN[C@H]1CC2(CCC2)Oc2ncc(CC(C)C)cc21 [compound 332] |  |
| 47.9 nM | 28.9 nM | CO[C@H](C)C(=O)N[C@@H](Cc1ccc(F)cc1)[C@H](O)CN[C@H]1CC2(CCC2)Oc2ncc(CC(C)C)cc21 [compound 333] |  |
| 67.2 nM | 48 nM | COCC(=O)N[C@@H](Cc1ccc2c(c1)OCO2)[C@H](O)CN[C@H]1CC2(CCC2)Oc2ncc(CC(C)C)cc21 [compound 334] |  |
| 76.5 nM | 38.3 nM | CO[C@H](C)C(=O)N[C@@H](Cc1ccc2c(c1)OCO2)[C@H](O)CN[C@H]1CC2(CCC2)Oc2ncc(CC(C)C)cc21 [compound 335] |  |
| 404 nM | 135 nM | CO[C@H](C)C(=O)N[C@@H](Cc1ccc2c(c1)OCO2)[C@H](O)CN[C@H]1CC2(CCC2)Oc2nc(F)c(CC(C)C)cc21 [compound 336] |  |
| 531 nM | 120 nM | COCC(=O)N[C@@H](Cc1ccc2c(c1)OCO2)[C@H](O)CN[C@H]1CC2(CCC2)Oc2nc(F)c(CC(C)C)cc21 [compound 337] |  |
| 252 nM | 109 nM | CC(=O)N[C@@H](Cc1ccc2c(c1)OCO2)[C@H](O)CN[C@H]1CC2(CCC2)Oc2nc(F)c(CC(C)C)cc21 [compound 338] |  |
| 126 nM | 43.7 nM | COCC(=O)N[C@@H](Cc1ccc2c(c1)OCO2)[C@H](O)CN[C@H]1CC2(CCC2)Oc2ncc(C[C@H](C)C(F)(F)F)cc21 [compound 339] |  |
| 90.6 nM | 148 nM | CO[C@H](C)C(=O)N[C@@H](Cc1ccc2c(c1)OCO2)[C@H](O)CN[C@H]1CC2(CCC2)Oc2ncc(C[C@H](C)C(F)(F)F)cc21 [compound 340] |  |
| 138 nM | 59.5 nM | COCC(=O)N[C@@H](Cc1ccc2c(c1)OCO2)[C@H](O)CN[C@H]1CC2(CCC2)Oc2ncc(C[C@@H](C)C(F)(F)F)cc21 [compound 341] |  |
| 343 nM | 175 nM | CO[C@H](C)C(=O)N[C@@H](Cc1ccc2c(c1)OCO2)[C@H](O)CN[C@H]1CC2(CCC2)Oc2ncc(C[C@@H](C)C(F)(F)F)cc21 [compound 342] |  |
| 41.7 nM | 34.4 nM | CO[C@H](C)C(=O)N[C@@H](Cc1cc(F)c2c(c1)OCO2)[C@H](O)CN[C@H]1CC2(CCC2)Oc2ncc(CC(C)C)cc21 [compound 343] |  |
| 44.2 nM | 8.94 nM | CO[C@H](C)C(=O)N[C@@H](Cc1cccc(F)c1)[C@H](O)CN[C@H]1CC2(CCC2)Oc2ncc(CC(F)(F)F)cc21 [compound 344] |  |
| 60.9 nM | 26.6 nM | CO[C@H](C)C(=O)N[C@@H](Cc1cccc(C#N)c1)[C@H](O)CN[C@H]1CC2(CCC2)Oc2ncc(CC(F)(F)F)cc21 [compound 345] |  |
| 47.1 nM | 10.2 nM | CO[C@H](C)C(=O)N[C@@H](Cc1cc(F)cc(F)c1)[C@H](O)CN[C@H]1CC2(CCC2)Oc2ncc(CC(F)(F)F)cc21 [compound 346] |  |
| 19.2 nM | 10.4 nM | COCC(=O)N[C@@H](Cc1cccc(C#N)c1)[C@H](O)CN[C@H]1CC2(CCC2)Oc2ncc(CC(F)(F)F)cc21 [compound 347] |  |
| 18.2 nM | 6.88 nM | COCC(=O)N[C@@H](Cc1cc(F)cc(F)c1)[C@H](O)CN[C@H]1CC2(CCC2)Oc2ncc(CC(F)(F)F)cc21 [compound 348] |  |
| 139 nM | 166 nM | COCC(=O)NC(Cc1cc(F)cc(F)c1)C(O)CNC1CC2(CCC2)Oc2ncc(C(O)C(F)(F)F)cc21 (stereo not drawn) [compound 349] |  |
| 24.5 nM | 9.09 nM | COCC(=O)N[C@@H](Cc1cccc(F)c1)[C@H](O)CN[C@H]1CC2(CCC2)Oc2ncc(CC(F)(F)F)cc21 [compound 350] |  |
| 12.3 nM | 2.75 nM | COCC(=O)N[C@@H](Cc1ccc(F)c(Cl)c1)[C@H](O)CN[C@H]1CC2(CCC2)Oc2ncc(CC(C)(C)C)cc21 [compound 351] |  |

| IC50 [1, 3] | IC50 [2, 4] | SMILES | also measured |
| --- | --- | --- | --- |
| 17.6 nM | 3.71 nM | COCC(=O)N[C@@H](Cc1ccc(F)c(Br)c1)[C@H](O)CN[C@H]1CC2(CCC2)Oc2ncc(CC(C)(C)C)cc21 [compound 352] |  |
| 424 nM | 120 nM | CC(=O)N[C@@H](Cc1ccc(F)c(Br)c1)[C@H](O)CN[C@H]1CC2(CCC2)Oc2ncc(OC(C)(C)C)cc21 [compound 353, N-((1S,2R)-1-((3-bromo-4-fluorophenyl)methyl)-3-(((4′S)-6′-((1,1-dimethylethyl)oxy)-3′,4′-dihydrospiro[cyclobutane-1,2′-pyrano[2,3-b]pyridin]-4′-yl)amino)-2-hydroxypropyl)acetamide] |  |
| 3490 nM | 4780 nM | CC(=O)N[C@@H](Cc1ccc(F)c(Br)c1)[C@H](O)CN(C)[C@H]1CC2(CCC2)Oc2ncc(CC(C)(C)C)cc21 [compound 354] |  |
| 113 nM | 117 nM | CC(=O)N[C@@H](Cc1ccc(F)cc1)[C@H](O)CNC1c2cc(CC(C)(C)C)cnc2OC2(CCC2)C1F (stereo partly drawn) [compound 355] |  |
| 6.46 nM | 3.17 nM | COCC(=O)N[C@@H](Cc1ccccc1)[C@H](O)CN[C@H]1CC2(CCC2)Oc2ncc([C@H](F)C(C)(C)C)cc21 [compound 356] |  |
| > 10000 nM | 13300 nM | CC(=O)N[C@@H](Cc1ccc(F)cc1)[C@H](O)CN[C@@H]1c2cc(CC(C)(C)C)cnc2OC2(CCC2)[C@H]1F [compound 357] |  |
| 353 nM | 22.4 nM | CC(=O)N[C@@H](Cc1ccc(F)cc1)[C@H](O)CN[C@@H]1c2cc(CC(C)(C)C)cnc2OC2(CCC2)[C@@H]1F [compound 358] |  |
| 208 nM | 199 nM | COC(=O)N[C@@H](Cc1ccc2c(c1)OCO2)[C@H](O)CN[C@H]1CC2(CCC2)Oc2ncc([C@H](F)C(C)(C)C)cc21 [compound 359] |  |
| 4.82 nM | 3.11 nM | CO[C@H](C)C(=O)N[C@@H](Cc1cccc(F)c1)[C@H](O)CN[C@H]1CC2(CCC2)Oc2ncc(CC(C)(C)C)cc21 [compound 360] |  |
| 9.23 nM | 6.58 nM | CO[C@@H](C)C(=O)N[C@@H](Cc1cccc(F)c1)[C@H](O)CN[C@H]1CC2(CCC2)Oc2ncc(CC(C)(C)C)cc21 [compound 361] |  |
| 123 nM | 60.1 nM | COCC(=O)N[C@@H](Cc1ccc2c(c1)OCO2)[C@H](O)CN[C@H]1CC2(CCC2)Oc2ncc(CC(C)(C)C(F)(F)F)cc21 [compound 362] |  |
| 160 nM | 49 nM | CO[C@H](C)C(=O)N[C@@H](Cc1ccc2c(c1)OCO2)[C@H](O)CN[C@H]1CC2(CCC2)Oc2ncc(CC(C)(C)C(F)(F)F)cc21 [compound 363] |  |
|  |  | CC(F)C(=O)N[C@@H](Cc1ccc2c(c1)OCO2)[C@H](O)CN[C@H]1CC2(CCC2)Oc2ncc(CC(C)(C)C)cc21 (stereo partly drawn) [compound 452, N-((1S,2R)-1-(1,3-benzodioxol-5-ylmethyl)-3-(((4′S)-6′-(2,2-dimethylpropyl)-3′,4′-dihydrospiro[cyclobutane-1,2′-pyrano[2,3-b]pyridin]-4′-yl)amino)-2-hydroxypropyl)-2-fluoropropanamide] | IC50 [1, 5]: 39 nM; IC50 [2, 6]: 16 nM |
|  |  | CC(C)(C)Cc1cnc2c(c1)[C@@H](NC[C@@H](O)[C@H](Cc1ccc3c(c1)OCO3)NC(=O)[C@@H]1CCCO1)CC1(CCC1)O2 [compound 453] | IC50 [1, 5]: 37 nM; IC50 [2, 6]: 22 nM |
|  |  | CC(C)(C)Cc1cnc2c(c1)[C@@H](NC[C@@H](O)[C@H](Cc1ccc3c(c1)OCO3)NC(=O)[C@H]1CCCO1)CC1(CCC1)O2 [compound 454, (2R)-N-((1S,2R)-1-(1,3-benzodioxol-5-ylmethyl)-3-(((4′S)-6′-(2,2-dimethylpropyl)-3′,4′-dihydrospiro[cyclobutane-1,2′-pyrano[2,3-b]pyridin]-4′-yl)amino)-2-hydroxypropyl)tetrahydro-2-furancarboxamide] | IC50 [1, 5]: 27 nM; IC50 [2, 6]: 20 nM |
|  |  | COCC(=O)N[C@@H](Cc1cccc(F)c1)[C@H](O)CN[C@H]1CC2(CCC2)Oc2c(-c3ccncc3)cc(CC(C)(C)F)cc21 [compound 530] | IC50 [1, 7]: 10 nM; IC50 [2, 8]: 15 nM |
|  |  | COCC(=O)N[C@@H](Cc1ccc(F)cc1)[C@H](O)CN[C@H]1CC2(CCC2)Oc2c(-c3ccncc3)cc(CC(C)(C)F)cc21 [compound 538] | IC50 [1, 7]: 43 nM; IC50 [2, 8]: 47 nM |
|  |  | CO[C@H](C)C(=O)N[C@@H](Cc1cccc(F)c1)[C@H](O)CN[C@H]1CC2(CCC2)Oc2c(-c3ccncc3)cc(CC(C)(C)F)cc21 [compound 564] | IC50 [1, 7]: 29 nM; IC50 [2, 8]: 32 nM |
|  |  | CO[C@H](C)C(=O)N[C@@H](Cc1ccc(F)cc1)[C@H](O)CN[C@H]1CC2(CCC2)Oc2c(-c3ccncc3)cc(CC(C)(C)F)cc21 [compound 577] | IC50 [1, 9]: 57 nM; IC50 [2, 10]: 115 nM |
|  |  | COCC(=O)N[C@@H](Cc1cc(F)cc(F)c1)[C@H](O)CN[C@H]1CC2(CCC2)Oc2c(-c3ccncc3)cc(CC(C)(C)F)cc21 [compound 579] | IC50 [1, 9]: 5 nM; IC50 [2, 10]: 14 nM |
|  |  | CC(C)Cc1cnc2c(c1)[C@@H](NC[C@@H](O)[C@H](Cc1ccc3c(c1)OCO3)NC(=O)[C@H](C)F)CC1(CCC1)O2 [compound 601] | IC50 [1, 9]: 62 nM; IC50 [2, 10]: 44 nM |
|  |  | CCOCC(=O)N[C@@H](Cc1ccc(F)cc1)[C@H](O)CN[C@H]1CC2(CCC2)Oc2ncc(CC(C)(C)C)cc21 [compound 655] | IC50 [1, 9]: 43 nM; IC50 [2, 10]: 13 nM |
